{"source": "paper PMC6419574", "about": "(Bioorganic & Medicinal Chemistry Letters, 2019)", "key": {"[1]": {"target": "T1, fascin (Homo sapiens, UniProt Q16658)", "details": "for Ligand efficiency: from SPR Kd"}, "[2]": {"target": "T1, fascin", "assay_type": "biochemical"}, "[3]": {"target": "T1, fascin", "test": "biochemical", "details": "SPR Kd"}, "[4]": {"target": "T1, fascin", "test": "Isothermal titration calorimetry", "assay_type": "binding", "details": "150 µM compound in syringe, 15 µM fascin in cell, Fig. 3B"}}}
{"smiles": "Cn1cc(NC(=O)c2cn(Cc3ccc(Cl)cc3)c(=O)c3ccccc23)cn1", "note": "[Compound 5, 2-(4-chlorobenzyl)-N-(1-methyl-1H-pyrazol-4-yl)-1-oxo-1,2-dihydroisoquinoline-4-carboxamide]", "values": [{"measurement": "increase in binding affinity compared to 3", "setting": "[1]; SPR Kd ratio vs compound 3", "value": "≈ 14 fold"}]}
{"smiles": "O=c1c2cnn(C3CCS(=O)(=O)C3)c2ncn1Cc1ccc(Cl)c(Cl)c1", "note": "(stereo not drawn) [Compound 2, 5-(3,4-dichlorobenzyl)-1-(1,1-dioxidotetrahydrothiophen-3-yl)-1,5-dihydro-4H-pyrazolo[3,4-d]pyrimidin-4-one, reference compound]", "values": [{"measurement": "improvement of fascin affinity over truncated compound 25", "setting": "[1]", "value": 23, "unit": "fold"}, {"measurement": "inhibition of fascin in the bundling assay (in words)", "setting": "[2]", "value": "inhibit fascin"}]}
{"smiles": "Cn1cc(NC(=O)c2cn(Cc3ccccc3)c(=O)c3ccccc23)cn1", "note": "[Compound 3, 2-benzyl-N-(1-methylpyrazol-4-yl)-1-oxo-isoquinoline-4-carboxamide]", "values": [{"measurement": "inhibition of fascin in the bundling assay (in words)", "setting": "[2]", "value": "inhibit fascin"}]}
{"smiles": "CC(=O)N(C)c1ccc(Cl)cc1Cl", "note": "[Compound 1, N-(2,4-dichlorophenyl)-N-methylacetamide]", "values": [{"measurement": "Ligand efficiency", "setting": "[1]", "value": 0.43}, {"measurement": "inhibition of fascin in the bundling assay (in words)", "setting": "[2]", "value": "Unlike compound 1, both 2 and 3 inhibit fascin"}]}
{"smiles": "O=C(Nc1ccncc1)c1cn(Cc2ccc(Cl)c(Cl)c2)c(=O)c2cnn(C3CCNCC3)c12", "note": "[Compound 28, 5-(3,4-dichlorobenzyl)-4-oxo-1-(piperidin-4-yl)-N-(pyridin-4-yl)-4,5-dihydro-1H-pyrazolo[4,3-c]pyridine-7-carboxamide]", "values": [{"measurement": "Kd", "setting": "[3]", "value": "85 ± 0.02", "unit": "nM"}, {"measurement": "Ligand efficiency", "setting": "[1]", "value": 0.29}, {"measurement": "ITC stoichiometry N", "setting": "[4]", "value": "1.05 ± 0.01"}]}
